Data as given in the NIST ThermoML archive (doi:10.1021/je034177v).

Test: xn = mol fraction of the nth substance listed
Settings: 101 kPa, Liquid; for speed of sound: Pulse-echo method; for mass density: Vibrating tube method

ClCCCCCCCl [1,6-dichlorohexane] + CCCCCCCCCCCC
Settings | mass density [kg/m3] | speed of sound [m/s]
278.15 K, x1 = 0.0498 | 769.76 | 1355
278.15 K, x1 = 0.1003 | 780.41 | 1353.3
278.15 K, x1 = 0.1497 | 791.41 | 1352
278.15 K, x1 = 0.2527 | 815.84 | 1350.4
278.15 K, x1 = 0.4017 | 855.12 | 1350.4
278.15 K, x1 = 0.502 | 884.56 | 1351.9
278.15 K, x1 = 0.6 | 916.3 | 1355.1
278.15 K, x1 = 0.7011 | 952.18 | 1360.1
278.15 K, x1 = 0.7986 | 990.33 | 1366.8
278.15 K, x1 = 0.8998 | 1034.17 | 1376.1
278.15 K, x1 = 0.9493 | 1057.53 | 1381.5
278.15 K, x1 = 0.9691 | 1067.22 | 1383.7
278.15 K, x1 = 1 | 1082.7 | 1387.4
283.15 K, x1 = 0.0498 | 766.11 | 1335.5
283.15 K, x1 = 0.1003 | 776.72 | 1333.9
283.15 K, x1 = 0.1497 | 787.68 | 1332.7
283.15 K, x1 = 0.2527 | 812 | 1331.2
283.15 K, x1 = 0.4017 | 851.13 | 1331.4
283.15 K, x1 = 0.502 | 880.48 | 1333.3
283.15 K, x1 = 0.6 | 912.1 | 1336.7
283.15 K, x1 = 0.7011 | 947.86 | 1342
283.15 K, x1 = 0.7986 | 985.89 | 1348.9
283.15 K, x1 = 0.8998 | 1029.59 | 1358.4
283.15 K, x1 = 0.9493 | 1052.88 | 1364
283.15 K, x1 = 0.9691 | 1062.53 | 1366.2
283.15 K, x1 = 1 | 1077.97 | 1370
288.15 K, x1 = 0.0498 | 762.46 | 1315.7
288.15 K, x1 = 0.1003 | 773.04 | 1314.3
288.15 K, x1 = 0.1497 | 783.94 | 1313.2
288.15 K, x1 = 0.2527 | 808.17 | 1311.8
288.15 K, x1 = 0.4017 | 847.16 | 1312.4
288.15 K, x1 = 0.502 | 876.39 | 1314.5
288.15 K, x1 = 0.6 | 907.89 | 1318.1
288.15 K, x1 = 0.7011 | 943.53 | 1323.6
288.15 K, x1 = 0.7986 | 981.42 | 1330.7
288.15 K, x1 = 0.8998 | 1024.98 | 1340.4
288.15 K, x1 = 0.9493 | 1048.19 | 1346.1
288.15 K, x1 = 0.9691 | 1057.82 | 1348.4
288.15 K, x1 = 1 | 1073.22 | 1352.3
293.15 K, x1 = 0.0498 | 758.82 | 1296.3
293.15 K, x1 = 0.1003 | 769.35 | 1294.9
293.15 K, x1 = 0.1497 | 780.2 | 1293.9
293.15 K, x1 = 0.2527 | 804.33 | 1292.7
293.15 K, x1 = 0.4017 | 843.16 | 1293.5
293.15 K, x1 = 0.502 | 872.29 | 1295.9
293.15 K, x1 = 0.6 | 903.68 | 1299.7
293.15 K, x1 = 0.7011 | 939.19 | 1305.4
293.15 K, x1 = 0.7986 | 976.96 | 1312.8
293.15 K, x1 = 0.8998 | 1020.39 | 1322.7
293.15 K, x1 = 0.9493 | 1043.52 | 1328.4
293.15 K, x1 = 0.9691 | 1053.11 | 1330.9
293.15 K, x1 = 1 | 1068.47 | 1334.8
298.15 K, x1 = 0.0498 | 755.16 | 1276.8
298.15 K, x1 = 0.1003 | 765.66 | 1275.5
298.15 K, x1 = 0.1497 | 776.45 | 1274.6
298.15 K, x1 = 0.2527 | 800.48 | 1273.7
298.15 K, x1 = 0.4017 | 839.16 | 1274.7
298.15 K, x1 = 0.502 | 868.18 | 1277.3
298.15 K, x1 = 0.6 | 899.46 | 1281.3
298.15 K, x1 = 0.7011 | 934.87 | 1287.3
298.15 K, x1 = 0.7986 | 972.49 | 1294.8
298.15 K, x1 = 0.8998 | 1015.8 | 1304.9
298.15 K, x1 = 0.9493 | 1038.85 | 1310.8
298.15 K, x1 = 0.9691 | 1048.42 | 1313.2
298.15 K, x1 = 1 | 1063.74 | 1317.3
303.15 K, x1 = 0.0498 | 751.5 | 1257.6
303.15 K, x1 = 0.1003 | 761.96 | 1256.4
303.15 K, x1 = 0.1497 | 772.7 | 1255.5
303.15 K, x1 = 0.2527 | 796.64 | 1254.7
303.15 K, x1 = 0.4017 | 835.16 | 1256.1
303.15 K, x1 = 0.502 | 864.08 | 1258.8
303.15 K, x1 = 0.6 | 895.24 | 1263.1
303.15 K, x1 = 0.7011 | 930.52 | 1269.2
303.15 K, x1 = 0.7986 | 968.02 | 1277
303.15 K, x1 = 0.8998 | 1011.2 | 1287.3
303.15 K, x1 = 0.9493 | 1034.18 | 1293.3
303.15 K, x1 = 0.9691 | 1043.71 | 1295.8
303.15 K, x1 = 1 | 1059 | 1299.9
308.15 K, x1 = 0.0498 | 747.81 | 1238.5
308.15 K, x1 = 0.1003 | 758.26 | 1237.4
308.15 K, x1 = 0.1497 | 768.93 | 1236.6
308.15 K, x1 = 0.2527 | 792.76 | 1236
308.15 K, x1 = 0.4017 | 831.14 | 1237.6
308.15 K, x1 = 0.502 | 859.96 | 1240.5
308.15 K, x1 = 0.6 | 891.01 | 1245
308.15 K, x1 = 0.7011 | 926.17 | 1251.3
308.15 K, x1 = 0.7986 | 963.55 | 1259.3
308.15 K, x1 = 0.8998 | 1006.61 | 1269.8
308.15 K, x1 = 0.9493 | 1029.52 | 1276
308.15 K, x1 = 0.9691 | 1039 | 1278.5
308.15 K, x1 = 1 | 1054.25 | 1282.7
313.15 K, x1 = 0.0498 | 744.13 | 1219.6
313.15 K, x1 = 0.1003 | 754.53 | 1218.5
313.15 K, x1 = 0.1497 | 765.15 | 1217.9
313.15 K, x1 = 0.2527 | 788.89 | 1217.5
313.15 K, x1 = 0.4017 | 827.13 | 1219.3
313.15 K, x1 = 0.502 | 855.84 | 1222.4
313.15 K, x1 = 0.6 | 886.78 | 1227
313.15 K, x1 = 0.7011 | 921.82 | 1233.6
313.15 K, x1 = 0.7986 | 959.07 | 1241.8
313.15 K, x1 = 0.8998 | 1002 | 1252.5
313.15 K, x1 = 0.9493 | 1024.85 | 1258.8
313.15 K, x1 = 0.9691 | 1034.3 | 1261.3
313.15 K, x1 = 1 | 1049.5 | 1265.7
318.15 K, x1 = 0.0498 | 740.46 | 1200.9
318.15 K, x1 = 0.1003 | 750.82 | 1199.9
318.15 K, x1 = 0.1497 | 761.37 | 1199.3
318.15 K, x1 = 0.2527 | 785.03 | 1199
318.15 K, x1 = 0.4017 | 823.12 | 1201.2
318.15 K, x1 = 0.502 | 851.72 | 1204.4
318.15 K, x1 = 0.6 | 882.55 | 1209.2
318.15 K, x1 = 0.7011 | 917.48 | 1216
318.15 K, x1 = 0.7986 | 954.61 | 1224.3
318.15 K, x1 = 0.8998 | 997.44 | 1235.3
318.15 K, x1 = 0.9493 | 1020.2 | 1241.7
318.15 K, x1 = 0.9691 | 1029.61 | 1244.3
318.15 K, x1 = 1 | 1044.78 | 1248.7
323.15 K, x1 = 0.0498 | 736.76 | 1182.4
323.15 K, x1 = 0.1003 | 747.09 | 1181.4
323.15 K, x1 = 0.1497 | 757.6 | 1180.9
323.15 K, x1 = 0.2527 | 781.15 | 1180.8
323.15 K, x1 = 0.4017 | 819.09 | 1183.1
323.15 K, x1 = 0.502 | 847.59 | 1186.5
323.15 K, x1 = 0.6 | 878.32 | 1191.6
323.15 K, x1 = 0.7011 | 913.12 | 1198.5
323.15 K, x1 = 0.7986 | 950.13 | 1207
323.15 K, x1 = 0.8998 | 992.83 | 1218.2
323.15 K, x1 = 0.9493 | 1015.52 | 1224.7
323.15 K, x1 = 0.9691 | 1024.9 | 1227.4
323.15 K, x1 = 1 | 1040.03 | 1231.8
328.15 K, x1 = 0.0498 | 733.07 | 1163.9
328.15 K, x1 = 0.1003 | 743.36 | 1163
328.15 K, x1 = 0.1497 | 753.83 | 1162.6
328.15 K, x1 = 0.2527 | 777.28 | 1162.6
328.15 K, x1 = 0.4017 | 815.09 | 1165.2
328.15 K, x1 = 0.502 | 843.49 | 1168.8
328.15 K, x1 = 0.6 | 874.11 | 1174
328.15 K, x1 = 0.7011 | 908.81 | 1181.1
328.15 K, x1 = 0.7986 | 945.71 | 1189.9
328.15 K, x1 = 0.8998 | 988.3 | 1201.2
328.15 K, x1 = 0.9493 | 1010.92 | 1207.8
328.15 K, x1 = 0.9691 | 1020.27 | 1210.5
328.15 K, x1 = 1 | 1035.37 | 1215.1
